Four cell lines from the supplement of paper PMC10307832 can be followed below.

Holding throughout (assay): relative viability (nuclei count vs DMSO), 5 days (fraction); higher = more cells survive
Compound in one assay: Cc1ccc(F)c(NC(=O)Nc2ccc(-c3cccc4[nH]nc(N)c34)cc2)c1 [Linifanib]
An outline of the steps: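 Viability was defined as treated-well nuclei divided by vehicle-well nuclei, with the median taken over replicate plates. Cells from lung cancer lines sat overnight at 37 °C in 1536-well plates, received five √10-spaced library-drug doses by pinning on vehicle-anchored plates, and grew 5 days without medium change before one-step fixation, permeabilisation and Hoechst staining, 4× imaging and MetaXpress nuclear counts. Only plates with control CV under 25% and at least one doubling were kept.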

Compound in the assay “Linifanib + Trametinib”: Cc1ccc(F)c(NC(=O)Nc2ccc(-c3cccc4[nH]nc(N)c34)cc2)c1 [Linifanib] + CC(=O)Nc1cccc(-n2c(=O)n(C3CC3)c(=O)c3c(Nc4ccc(I)cc4F)n(C)c(=O)c(C)c32)c1 [Trametinib] (partner 0.02 µM)
An outline of the steps:
(§1)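 For relative viability, nuclei counts in treated wells were divided by those in vehicle wells. Lung cancer cell lines had been pin-tool dosed in 1536-well plates the day after seeding and cultured for 5 days, then fixed and stained in one step (final 0.05% Triton X-100, 1% formaldehyde, 1 ug/ml Hoechst) and imaged at 4×. Doses were one drug alone or a fixed anchor-drug dose plus five library-drug doses (not always all listed) in √10 steps, and values are duplicate-plate medians.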

Compound in the assay “Linifanib + Bortezomib”: Cc1ccc(F)c(NC(=O)Nc2ccc(-c3cccc4[nH]nc(N)c34)cc2)c1 [Linifanib] + CC(C)C[C@H](NC(=O)[C@H](Cc1ccccc1)NC(=O)c1cnccn1)B(O)O [Bortezomib] (partner 0.002 µM)
Summed up: as §1

Compound in the assay “Linifanib + Phenformin”: Cc1ccc(F)c(NC(=O)Nc2ccc(-c3cccc4[nH]nc(N)c34)cc2)c1 [Linifanib] + N=C(N)NC(=N)NCCc1ccccc1 [Phenformin] (partner 250 µM)
An outline of the steps:
as §1

Compound in the assay “Linifanib + Decitabine”: Cc1ccc(F)c(NC(=O)Nc2ccc(-c3cccc4[nH]nc(N)c34)cc2)c1 [Linifanib] + Nc1ncn([C@H]2C[C@H](O)[C@@H](CO)O2)c(=O)n1 [Decitabine] (partner 2 µM)
Summed up:
as §1

Compound in the assay “Linifanib + Vorinostat”: Cc1ccc(F)c(NC(=O)Nc2ccc(-c3cccc4[nH]nc(N)c34)cc2)c1 [Linifanib] + O=C(CCCCCCC(=O)Nc1ccccc1)NO [Vorinostat] (partner 1 µM)
Summed up:
as §1

As to RERF-LC-KJ, the relative viability stood at 1.04 with Linifanib (0.03162 µM); 0.989 with Linifanib (0.1 µM); 0.96 in the assay with Linifanib (0.3162 µM); 0.871 in the assay with Linifanib + Trametinib (first compound 0.03162 µM); 0.87 with Linifanib + Trametinib (first compound 0.1 µM); 0.877 in the assay with Linifanib + Trametinib (first compound 0.3162 µM). The relative viability turned out to be 1.25 with Linifanib + Bortezomib (first compound 0.03162 µM); 1.22 in the assay with Linifanib + Bortezomib (first compound 0.1 µM); 0.991 with Linifanib + Bortezomib (first compound 0.3162 µM); 0.404 in the assay with Linifanib + Phenformin (first compound 0.03162 µM); 0.479 with Linifanib + Phenformin (first compound 0.1 µM); 0.439 in the assay with Linifanib + Phenformin (first compound 0.3162 µM). The relative viability turned out to be 0.707 in the assay with Linifanib + Decitabine (first compound 0.03162 µM); 0.651 with Linifanib + Decitabine (first compound 0.1 µM); 0.717 in the assay with Linifanib + Decitabine (first compound 0.3162 µM); 0.737 with Linifanib + Vorinostat (first compound 0.03162 µM); 0.804 in the assay with Linifanib + Vorinostat (first compound 0.1 µM); 0.727 with Linifanib + Vorinostat (first compound 0.3162 µM).
As to COR-L23, the relative viability in the assay with Linifanib (0.03162 µM) turned out to be 1.1; in the assay with Linifanib (0.1 µM), 1.11; in the assay with Linifanib (0.3162 µM), 1; in the assay with Linifanib + Trametinib (first compound 0.03162 µM), 0.666; with Linifanib + Trametinib (first compound 0.1 µM), 0.689; with Linifanib + Trametinib (first compound 0.3162 µM) it was 0.578. Also, the relative viability was 1.12 in the assay with Linifanib + Bortezomib (first compound 0.03162 µM); 1.17 with Linifanib + Bortezomib (first compound 0.1 µM); 0.831 with Linifanib + Bortezomib (first compound 0.3162 µM); 0.464 with Linifanib + Phenformin (first compound 0.03162 µM); 0.431 with Linifanib + Phenformin (first compound 0.1 µM); 0.399 in the assay with Linifanib + Phenformin (first compound 0.3162 µM). Besides, the relative viability with Linifanib + Decitabine (first compound 0.03162 µM) came out at 0.448; in the assay with Linifanib + Decitabine (first compound 0.1 µM) it was 0.455; in the assay with Linifanib + Decitabine (first compound 0.3162 µM), 0.396; with Linifanib + Vorinostat (first compound 0.03162 µM) it was 0.462; with Linifanib + Vorinostat (first compound 0.1 µM), 0.402; with Linifanib + Vorinostat (first compound 0.3162 µM), 0.384.
Regarding UMC-11, the relative viability in the assay with Linifanib (0.03162 µM) turned out to be 0.979; with Linifanib (0.1 µM), 1.02; in the assay with Linifanib (0.3162 µM), 0.878; with Linifanib + Trametinib (first compound 0.03162 µM), 0.807; with Linifanib + Trametinib (first compound 0.1 µM), 0.721; with Linifanib + Trametinib (first compound 0.3162 µM), 0.774. Moreover, the relative viability in the assay with Linifanib + Bortezomib (first compound 0.03162 µM) was 0.961; in the assay with Linifanib + Bortezomib (first compound 0.1 µM) it was 0.731; with Linifanib + Bortezomib (first compound 0.3162 µM) it was 0.668; with Linifanib + Phenformin (first compound 0.03162 µM) it was 0.334; in the assay with Linifanib + Phenformin (first compound 0.1 µM), 0.327; with Linifanib + Phenformin (first compound 0.3162 µM), 0.326. Moreover, the relative viability worked out at 0.585 with Linifanib + Decitabine (first compound 0.03162 µM); 0.562 with Linifanib + Decitabine (first compound 0.1 µM); 0.581 with Linifanib + Decitabine (first compound 0.3162 µM); 0.334 in the assay with Linifanib + Vorinostat (first compound 0.03162 µM); 0.315 with Linifanib + Vorinostat (first compound 0.1 µM); 0.354 with Linifanib + Vorinostat (first compound 0.3162 µM).
As for SW 1573, the relative viability was determined as 0.98 in the assay with Linifanib (0.03162 µM); 1.08 in the assay with Linifanib (0.1 µM); 0.963 with Linifanib (0.3162 µM); 0.505 with Linifanib + Trametinib (first compound 0.03162 µM); 0.674 with Linifanib + Trametinib (first compound 0.1 µM); 0.563 with Linifanib + Trametinib (first compound 0.3162 µM). Besides, the relative viability in the assay with Linifanib + Bortezomib (first compound 0.03162 µM) was found to be 0.972; with Linifanib + Bortezomib (first compound 0.1 µM), 1.04; with Linifanib + Bortezomib (first compound 0.3162 µM), 1.08; with Linifanib + Phenformin (first compound 0.03162 µM), 0.411; with Linifanib + Phenformin (first compound 0.1 µM) it was 0.363; with Linifanib + Phenformin (first compound 0.3162 µM), 0.438. Besides, the relative viability in the assay with Linifanib + Decitabine (first compound 0.03162 µM) turned out to be 0.514; with Linifanib + Decitabine (first compound 0.1 µM) it was 0.604; with Linifanib + Decitabine (first compound 0.3162 µM), 0.584; with Linifanib + Vorinostat (first compound 0.03162 µM), 0.909; in the assay with Linifanib + Vorinostat (first compound 0.1 µM), 0.93; with Linifanib + Vorinostat (first compound 0.3162 µM), 0.594.
